The source made the active and inactive calls.
Columns and labels:
[1] = viability loss in Vero cells – cytotoxicity control for Vif-APOBEC3G degradation inhibitor project, dose response (AID 1117358); format: functional; conditions: Vero
[2] = Trypanosoma cruzi growth suppression in host cells – NIH3T3 host cells, beta-gal luminescence, confirmation (AID 2044); format: functional, cell-based;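 further: intracellular parasites grown in NIH/3T3 mouse fibroblasts as host cells; luminescent beta-galactosidase reporter signal from transgenic T. cruzi replicating inside host cells; inhibitors lower the luminescence signal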
[3] = NIH3T3 cell viability loss – ATP luminescence, mouse fibroblasts, counter-screen, dose response (AID 2010); format: functional, cell-based;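 further: cells exposed to compound for about 90 hours before reading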
[4] = cells
[5] = Luminescence Cell-Based Dose Response to Identify Activators of 5'UTR Stem-Loop Driven Prion Protein mRNA Translation in H4-C Neuroglioblastoma Cells. [Related pubchem assays: 1829 (Project Summary), 1814 (Primary HTS)]; format: functional
[6] = test system: H4; experiment: Luminescence Cell-Based Dose Response HTS to Identify Activators of 5'UTR Stem-Loop Driven Prion Protein mRNA Translation in H4 Neuroglioblastoma Cells. [Related pubchem assays: 1829 (Project Summary), 1814 (Primary HTS)]; format: functional; conditions: Homo sapiens
[7] = Luminescence Cell-Based Dose Response to Identify Activators of Luciferase Translation or Activity in H4-C Neuroglioblastoma Cells. [Related pubchem assays: 1829 (Project Summary), 1814 (Primary HTS)]; format: functional
[8] = Luminescence Cell-Based Dose Response HTS to Identify Activators of Luciferase Translation or Activity in H4 […] Cells. [Related pubchem assays: 1829 (Project Summary), 1814 (Primary HTS)]; format: functional
[9] = Luminescence Cell-Based Dose Confirmation to Identify Activators of 5'UTR Stem-Loop Driven Alpha-Synuclein mRNA Translation in H4 Neuroglioblastoma Cells. [Related pubchem assays: 1829 (Project Summary), 1814 (Primary HTS)]; format: functional
[10] = molecular target: Procathepsin L (Homo sapiens, UniProt P07711); experiment: CTSL1 protease inhibition – biochemical, QFRET, 1536-well, counter-screen for M1/M17 aminopeptidase inhibitor project, dose response (AID 2214)
Sequence of Procathepsin L (P07711 whole entry): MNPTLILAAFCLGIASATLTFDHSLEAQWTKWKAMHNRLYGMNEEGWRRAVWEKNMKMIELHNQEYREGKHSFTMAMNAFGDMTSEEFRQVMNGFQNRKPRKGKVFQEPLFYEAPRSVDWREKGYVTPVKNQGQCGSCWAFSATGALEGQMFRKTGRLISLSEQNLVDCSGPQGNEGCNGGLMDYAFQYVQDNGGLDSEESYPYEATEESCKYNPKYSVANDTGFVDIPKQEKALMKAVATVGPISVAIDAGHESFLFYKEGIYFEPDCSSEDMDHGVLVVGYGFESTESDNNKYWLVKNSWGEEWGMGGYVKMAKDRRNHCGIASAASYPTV

[11] = molecular target: T1, Leucine aminopeptidase (Plasmodium falciparum 3D7, UniProt Q8IL11); experiment: P. falciparum M17LAP inhibitors, primary screen, biochemical, fluorogenic H-Leu-NHMec substrate, 1536-well (AID 1619); format: functional
T1 sequence (Q8IL11 whole entry): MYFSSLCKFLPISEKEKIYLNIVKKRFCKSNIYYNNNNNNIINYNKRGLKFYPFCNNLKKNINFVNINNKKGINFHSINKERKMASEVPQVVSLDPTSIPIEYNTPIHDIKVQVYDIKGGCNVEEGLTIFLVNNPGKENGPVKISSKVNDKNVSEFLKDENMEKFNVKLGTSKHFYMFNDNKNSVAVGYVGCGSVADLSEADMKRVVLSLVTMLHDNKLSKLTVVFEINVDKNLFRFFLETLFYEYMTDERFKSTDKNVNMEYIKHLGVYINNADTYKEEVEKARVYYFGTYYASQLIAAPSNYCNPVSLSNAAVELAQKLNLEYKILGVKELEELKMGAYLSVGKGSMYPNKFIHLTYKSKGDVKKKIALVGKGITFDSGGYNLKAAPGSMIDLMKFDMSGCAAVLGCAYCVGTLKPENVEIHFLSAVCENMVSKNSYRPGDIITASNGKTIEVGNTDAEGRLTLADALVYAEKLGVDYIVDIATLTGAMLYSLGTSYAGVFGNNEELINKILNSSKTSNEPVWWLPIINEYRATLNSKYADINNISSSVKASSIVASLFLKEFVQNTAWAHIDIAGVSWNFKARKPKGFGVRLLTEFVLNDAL

[12] = A cytotoxicity screen of small molecule inhibitors of the PhoP region in Salmonella typhi identified in the primary screen. [Related pubchem assays: 1850, 1864, 1985 ]; format: functional
[13] = molecular target: Aspartyl aminopeptidase (Plasmodium falciparum 3D7, UniProt Q8I2J3); experiment: Counterscreen for inhibitors of M1 and M17 aminopeptidases: QFRET-based biochemical high throughput dose response assay for inhibitors of the Plasmodium falciparum M18 Aspartyl Aminopeptidase (PFM18AAP). [Related PubChem assays: 1619 (Screening assay (M17LAP inhibitors).), 1445 (Screening assay (M1AAP inhibitors).)]
Sequence of Aspartyl aminopeptidase (Q8I2J3 whole entry): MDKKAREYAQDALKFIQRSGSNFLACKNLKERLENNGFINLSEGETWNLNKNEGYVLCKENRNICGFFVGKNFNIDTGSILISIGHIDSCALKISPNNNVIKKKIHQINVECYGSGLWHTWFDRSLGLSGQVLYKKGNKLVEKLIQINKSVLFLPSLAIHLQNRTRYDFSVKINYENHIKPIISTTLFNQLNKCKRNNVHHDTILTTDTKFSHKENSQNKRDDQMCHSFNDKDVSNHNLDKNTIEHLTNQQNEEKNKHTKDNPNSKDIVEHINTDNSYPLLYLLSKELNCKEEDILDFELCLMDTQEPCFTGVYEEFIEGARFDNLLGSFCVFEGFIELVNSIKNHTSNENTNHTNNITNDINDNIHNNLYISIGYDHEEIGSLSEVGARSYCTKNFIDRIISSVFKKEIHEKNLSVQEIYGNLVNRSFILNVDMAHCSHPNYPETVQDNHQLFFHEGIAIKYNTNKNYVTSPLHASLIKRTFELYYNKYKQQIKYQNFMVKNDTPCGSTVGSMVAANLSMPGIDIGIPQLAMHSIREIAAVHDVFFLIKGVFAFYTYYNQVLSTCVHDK

[14] = viability loss in THP-1 monocytes – THP-1 cells, cytotoxicity control for Vif-APOBEC3G degradation inhibitor project, dose response (AID 1117359); format: functional; conditions: THP-1
[15] = HPDE-C7 pancreatic duct cell viability loss – fluorescence, HTS (AID 430); format: functional, cell-based; conditions: Homo sapiens
[16] = viability loss of HPDE-C7K cells – cell-based, fluorescence, HTS, primary screen (AID 431); format: functional; conditions: Homo sapiens
[17] = test system: HeLa; experiment: Cytotoxicity counterscreen assay for transcriptional activators of heat shock protein 70 (Hsp70). [Related pubchem assays: 1203, 1252 ]; format: functional; conditions: Homo sapiens;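 further: cells exposed to compound for 16 hours before readout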
[18] = test system: INS1; experiment: INS-1E survival protection against cytokine death – cell-based, luminescence, retest, dose response (AID 449756); format: functional; conditions: Rattus norvegicus;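 further: cell death triggered by IL-1 beta plus TNF-alpha plus IFN-gamma mixture; protective hits raise ATP signal compared with cytokine alone wells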
[19] = molecular target: T2, Ubiquitin-conjugating enzyme E2 N (Homo sapiens, UniProt P61088); format: functional;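 further: Dose-response confirmation in a TR-FRET assay detecting UBC13-driven polyubiquitin chain formation, inhibition measured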
T2 sequence (P61088 whole entry): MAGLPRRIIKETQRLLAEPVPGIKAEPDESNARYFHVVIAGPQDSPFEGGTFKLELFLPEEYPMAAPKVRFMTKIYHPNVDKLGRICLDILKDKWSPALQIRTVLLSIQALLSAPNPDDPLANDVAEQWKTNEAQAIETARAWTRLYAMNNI

With `Cc1ccc(Nc2nc(C(=O)NCc3ccco3)cs2)cc1` as the molecule, how does the CC50 [1] read?
Its CC50 is > 40 µM (active).

Which CC50 [1] does the source give for `COc1ccc(N=C(S)NCCc2ccccc2OC)c(OC)c1` here?
The CC50 was > 40 µM (active).

With `COC(=O)c1ccc(CN2CCCC(CCC(=O)NCc3ccc(C)o3)C2)cc1` (centres undefined) as the molecule, how does the EC50 [2] read?
The EC50 was < 0.1 µM (active).

And the EC50 [3]?
The EC50 was > 60 µM (not active).

What about the EC50 [4] of the same molecule?
Its EC50 is 0.113 µM (active).

Which EC50 [5] does the source give for `COc1ccccc1-c1nc(-c2ccc(Br)cc2)no1` here?
The EC50 was 0.427 µM (active).

What about the EC50 [6] of the same molecule?
Its EC50 is < 0.1 µM (active).

What about the EC50 [7] of the same molecule?
Its EC50 is 0.378 µM (active).

And the EC50 [8]?
The EC50 was 0.217 µM (active).

What about the EC50 [9] of the same molecule?
The EC50 was 0.34 µM (active).

With `CCCCc1c(O)nc(SCC(=O)Nc2ccc3c(c2)CCC3)nc1O` as the molecule, how does the IC50 [10] read?
The IC50 was > 59.6 µM (not active).

What about the IC50 [11] of the same molecule?
Its IC50 is 7.61 µM (active).

What about the EC50 [12] of the same molecule?
Its EC50 is > 50 µM (active).

And the IC50 [13]?
Its IC50 is > 73.5 µM (not active).

With `CCn1c(=O)oc2cc(NC(=O)CCl)ccc21` as the molecule, how does the CC50 [14] read?
The CC50 was > 40 µM (active).

With `O=C1/C(=C\c2ccco2)CCC/C1=C\c1ccco1` as the molecule, how does the CC50 [14] read?
Its CC50 is > 40 µM (active).

With `Cc1ccc(S(=O)(=O)Nc2ccc3oc(=O)sc3c2)c(C)c1` as the molecule, how does the EC50 [15] read?
Its EC50 is 12.8 µM (active).

What about the EC50 [16] of the same molecule?
The EC50 was 13.7 µM (active).

For `COCC(=O)Nc1cccc(Br)c1`, which CC50 [17] is on record?
The CC50 was > 99 µM (not active).

With `CC(C)(C)c1cc(NCCCn2ccnc2)n2ncc(-c3ccccc3)c2n1` as the molecule, how does the EC50 [5] read?
Its EC50 is 1.27 µM (active).

What about the EC50 [6] of the same molecule?
The EC50 was > 120 µM (not active).

And the EC50 [7]?
Its EC50 is 0.377 µM (active).

And the AC50 [18]?
The AC50 was 11 µM (active).

What about the EC50 [8] of the same molecule?
Its EC50 is < 0.1 µM (active).

And the EC50 [9]?
The EC50 was 0.735 µM (active).

What about the IC50 [19] of the same molecule?
The IC50 was > 20 µM (inactive).

With `Cc1ccccc1Oc1ccc(NC(=O)C2CC=CCC2C(=O)O)cc1` (centres undefined) as the molecule, how does the IC50 [10] read?
Its IC50 is > 59.6 µM (not active).

And the IC50 [11]?
Its IC50 is 1.33 µM (active).

What about the IC50 [13] of the same molecule?
Its IC50 is > 73.5 µM (not active).

Reference: ChEMBL document CHEMBL1201862, “PubChem BioAssay data set” (2004)
